From US6613879B1, “FAP-activated anti-tumour compounds” (Boehringer Ingelheim Pharma KG, priority 1999, dated 2003)

What was measured:
[1] = target: T1, soluble recombinant FAPα (FAPmCD8 fusion protein) (UniProt P01731+Q12884); test: Cleavage of doxorubicin-peptide conjugates by soluble recombinant FAPα (HPLC release of free doxorubicin); assay type: biochemical, human; conditions: after 20 h
T1 construct: the extracellular domain of FAPα (amino acids 27 to 760), generating a fusion protein construct, FAPmCD8; extracellular domain of murine CD8α (Genbank M12825), N-terminal 189 amino acids (N); made in house; host or cells: High Five insect cells, recombinant baculovirus (pVL1393; amplified in Sf9)
Procedure: A soluble recombinant form of FAPα protein was prepared as follows. […] The cDNAs were verified by sequencing and inserted into the pVL1393 vector. […] The culture supernatant of High Five cells infected with recombinant FAPmCD8 baculovirus for four days was collected and cleared by ultracentrifugation. FAPmCD8 fusion protein was purified from such supernatants using an anti-FAPα monoclonal antibody immobilized on activated agarose beads (Pierce Chemical, Indianapolis, Ind., USA). […] The samples were immediately neutralized with a saturated Tris solution (Sigma Chemicals, St. Louis, Mo.) and protein-containing fractions were pooled.
Doxorubicin-peptide conjugate stock solutions (5 mM) were diluted with Hepes-buffered saline pH 7.4 to a final concentration of 50 to 100 μM. Twenty μl of the resulting solution was mixed with 50 μl of purified FAPmCD8 fusion protein (approximately 20 ng) described above and 30 μl Hepes-buffered saline, pH 7.4. The mixture was allowed to incubate at 37° C. for 1 day and release of free doxorubicin was measured in the HPLC assay described. Areas under each peak were quantified using the software package above and the initial value was set to 100%. The rate of release of free doxorubicin was measured by the appearance of a peak with the same retention time as free doxorubicin under these HPLC conditions. The areas under each peak were used to calculate the relative amounts of free doxorubicin to doxorubicin-peptide conjugate.

[2] = target: T2, cell-bound FAPα (FAP-expressing cell line HT1080 clone 33) (Homo sapiens, UniProt Q12884); test: Release of free doxorubicin by cell-bound FAPα, HT1080 clone 33 cells; assay type: cell-based; conditions: 1 μM conjugate, serum-free medium, 19 hours at 37° C.
T2 construct: expressed in transfected cells; host or cells: HT1080 fibrosarcoma cells, clone 33
T2 sequence (Q12884 1-760): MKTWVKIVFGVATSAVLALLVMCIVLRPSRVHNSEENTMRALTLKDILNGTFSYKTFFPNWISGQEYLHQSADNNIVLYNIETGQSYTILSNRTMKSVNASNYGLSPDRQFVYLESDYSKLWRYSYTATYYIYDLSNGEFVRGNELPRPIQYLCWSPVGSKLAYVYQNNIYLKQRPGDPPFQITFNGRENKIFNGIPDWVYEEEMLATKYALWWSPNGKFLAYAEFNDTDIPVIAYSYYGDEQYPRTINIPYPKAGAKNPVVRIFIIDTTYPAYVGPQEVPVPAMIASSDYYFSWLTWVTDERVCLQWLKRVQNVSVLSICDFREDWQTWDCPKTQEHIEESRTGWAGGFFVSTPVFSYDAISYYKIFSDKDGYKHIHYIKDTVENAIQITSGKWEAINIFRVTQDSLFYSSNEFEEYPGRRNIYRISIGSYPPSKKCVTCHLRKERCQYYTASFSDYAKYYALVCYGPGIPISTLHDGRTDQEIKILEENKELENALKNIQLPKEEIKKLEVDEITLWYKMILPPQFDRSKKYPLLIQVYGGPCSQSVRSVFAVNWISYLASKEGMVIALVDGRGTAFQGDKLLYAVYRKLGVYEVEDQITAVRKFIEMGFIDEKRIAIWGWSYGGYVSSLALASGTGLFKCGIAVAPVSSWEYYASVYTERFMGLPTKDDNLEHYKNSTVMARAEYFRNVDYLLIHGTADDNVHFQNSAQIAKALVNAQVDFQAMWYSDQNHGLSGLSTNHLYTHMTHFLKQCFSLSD
Procedure: (§1) Mammalian cell lines expressing recombinant FAPα were prepared. HT1080 fibrosarcoma cells, widely known and available from the DSMZ (German Collection of Microorganisms and Cell Cultures, Braunschweig, Germany) under the accession number DSMZ ACC 315, were maintained in a DMEM/F12 mix 50:50 containing 10% fetal bovine serum in an atmosphere of 95% air and 5% CO2. HT1080 cells were transfected with FAP.38 vector (WO 97/34927, Scanlan et al., loc. cit.) using the Lipofectin method according to the manufacturer's instructions (Gibco/BRL). Transfectants were selected for resistance to antibiotics (200 μg/ml Geneticin) and thereafter maintained in medium containing Geneticin. Individual colonies of resistant cells were picked, grown to confluence in 10 cm tissue culture petri dishes and tested for FAPα expression in an immunofluorescence assay using the FAPα-specific monoclonal antibody F19, as described (Garin-Chesa et al. (1990) Proc. Natl. Acad. Sci. USA 87(18), 7235-7239).
(§2) Samples were separated by reversed-phase high performance liquid chromatographic (HPLC) assay that was established to measure cleavage of doxorubicin-peptide conjugates. […] Free doxorubicin and doxorubicin-peptide conjugates were detected by fluorescence (excitation, 475 nm; emission, 585 nm) using a Waters 474 fluorescence detector. […]

[3] = test system: parental HT1080 cell line; conditions: 1 μM conjugate, serum-free medium, 19 hours at 37° C.
Procedure: as §1, §2

T1 sequence (P01731+Q12884 fused): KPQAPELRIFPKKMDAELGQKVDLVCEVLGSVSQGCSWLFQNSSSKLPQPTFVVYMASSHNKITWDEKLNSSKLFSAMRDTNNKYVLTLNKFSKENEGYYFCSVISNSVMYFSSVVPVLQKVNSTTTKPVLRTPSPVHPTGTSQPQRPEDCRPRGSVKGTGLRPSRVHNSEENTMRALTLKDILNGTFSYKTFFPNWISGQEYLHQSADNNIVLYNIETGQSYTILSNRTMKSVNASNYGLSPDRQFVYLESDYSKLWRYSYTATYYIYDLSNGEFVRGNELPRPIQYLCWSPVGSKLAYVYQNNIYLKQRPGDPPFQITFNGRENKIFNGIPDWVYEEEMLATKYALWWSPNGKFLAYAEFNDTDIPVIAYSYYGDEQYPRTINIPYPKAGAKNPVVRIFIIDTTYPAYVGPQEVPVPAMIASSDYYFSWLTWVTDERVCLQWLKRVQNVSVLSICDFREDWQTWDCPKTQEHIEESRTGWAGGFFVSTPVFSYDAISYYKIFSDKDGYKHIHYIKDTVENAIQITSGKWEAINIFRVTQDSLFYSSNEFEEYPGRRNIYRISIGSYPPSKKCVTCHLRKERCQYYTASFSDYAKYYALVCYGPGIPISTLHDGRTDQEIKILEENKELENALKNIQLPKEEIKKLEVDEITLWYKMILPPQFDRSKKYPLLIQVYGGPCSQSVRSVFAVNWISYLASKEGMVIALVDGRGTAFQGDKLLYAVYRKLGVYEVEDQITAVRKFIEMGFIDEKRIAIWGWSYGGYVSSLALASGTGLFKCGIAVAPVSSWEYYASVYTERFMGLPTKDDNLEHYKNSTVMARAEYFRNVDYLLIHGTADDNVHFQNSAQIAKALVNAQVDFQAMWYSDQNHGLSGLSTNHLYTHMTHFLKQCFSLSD

## COc1cccc2c1C(=O)c1c(O)c3c(c(O)c1C2=O)CC(O)(C(=O)CO)CC3OC1CC(NC(=O)C2CCCN2C(=O)CNC(=O)C(C)NC(=O)C2CCCN2C(=O)OCc2ccccc2)C(O)C(C)O1 (stereo not drawn) [ZPAGP-Dox, N-Cbz-Pro-Ala-Gly-Pro-Doxorubicin]
[1]
  Cleavage by FAP: >95%
[2]
  conversion of conjugate to free doxorubicin by HT1080 clone 33: 43%
[3]
  conversion of conjugate to free doxorubicin by parental HT1080 cell line: Little or no detectable conversion
